Data set [1] deals with human peripheral blood lymphocytes. Nature of the data set: Human PBL + OKT3 proliferation (Table 5, assay 1). Type of data set: cell-based. The conditions noted are these: Lymphocyte, [3H]TdR incorporation, estimated. The method, then:
1) Assay similar to Yoshimura, N. et al., Transplantation 47:356-359 (1989). Assay uses fresh human peripheral blood lymphocytes isolated by Ficoll-Hypaque density centrifugation, stimulated bythe OKT3 antibody (anti-CD3) which stimulates via interaction with CD3. Stimulation is measured by incorporation of radioactive thymidine [(^3 H)TdR] into proliferating cells, with an uninhibited control signal of 48,000-75,000 cpm. IC50 values are estimated from inhibitions of proliferation observed at various drug concentrations.

The subject of another data set is CTLLs. The settings on record: cited from earlier work.
The subject of a further data set is binding protein (FKBP). The conditions noted are these: cited from earlier work.
For another data set, the system named is IL-2 production. The conditions noted are these: in vitro; cited from earlier work.
A further data set concerns PPIase. The settings on record: cited from earlier work.
A further data set has as its system cytotoxic T-cell. The conditions noted are these: in vitro; cited from earlier work.
Data set [2] deals with T-cell clone stimulated with antibody to TCR and CD2. Nature of the data set: T-Cell Hybridoma + TCR/CD2 proliferation (Table 5, assay 2). The class given is cell-based. The conditions noted are these: [3H]TdR incorporation, estimated. The method, then: 2) Assay similar to above, but using T-cell clone stimulated with antibody to the T-cell receptor (TCR) and antibody to CD2. Stimulation is measured by incorporation of radioactive thymidine [(^3 H)TdR] into proliferating cells, with an uninhibited control signal of 23,000 cpm. IC50 values are estimated from inhibitions of proliferation observed at various drug concentrations.

The next data set has as its system mixed lymphocyte culture. The conditions noted are these: in vitro; cited from earlier work.
In the next data set the test system is CTLL cells. The experiment in a line: CTLL Proliferation + IL-2 (Table 5, assay 4). Type of data set: cell-based, murine. The conditions noted are these: for IC50: Mus musculus, CTLL, exogenous IL-2, [3H]TdR incorporation. The protocol: 4) Assay according to DuMont, F. et al., J. Immunol. 144:251-258 (1990). The assay measures the stimulation of CTLL cells in response to IL-2. Proliferation is measured by incorpoation of (^3 H)TdR. […] In this assay, exogenous IL-2 is provided to overcome this block.
Fresh peripheral blood lymphocytes (PBLs) from LeukoPak cells or whole blood from random normal blood donors (tested HIV-negative and hepatitis negative) are isolated and separated by density centrifugation over Histopaque 1077 (Sigma Chemical Co., St. Louis, Mo.). The murine CTLL cytotoxic T cell line and the human Jurkat T cell line are from ATCC (CTLL-2 ATCC TIB214, JURKAT CLONE E6-1 ATCC TIBl52). The human allogeneic B cell lines used for activation of the fresh PBLs are EBV-transformed lymphocytes from normal healthy adult donors with two completely different HLAhaplotypes. All cell lines were routinely tested for the presence of Mycolasma contamination using the GibcoMycotect test kit and are Mycolasma-free. Culture medium consksts of RPMI 1640 (Gibco, Grand Island, N.Y.) containing penicillin (50 U/ml) and streptomycin (50 μg/ml), L-glutamine 2 mM, 2 mercaptoethanol (5×10^-5), 10% heat-inactivated FCS and 10 mM HEPES.

A further data set has as its system T-cell hybridoma. Nature of the data set: Apoptosis: activation-induced (anti-CD3) cell death in T-cell hybridoma (Table 5, assay 3). The class given is cell-based. The conditions noted are these: for Apoptosis (activation-induced cell death): at 1 μg/ml. From the text: 3) Assay according to Shi, Y. et al., Nature 339:625-626 (1989). The assay uses a T-cell hybridoma similar to that described. The assay measures activation-induced (anti-CD3) cell death (evaluated by counting viable cells after staining as described) in a T-cell hybridoma that mimics the effect known to occur in immature thymocytes.

Data set [3] addresses T1, FK-506 binding protein (FKBP) (Homo sapiens, UniProt P62942). The experiment in a line: Inhibition of PPIase (rotamase) enzyme activity of FKBP (apparent Ki). Type of data set: biochemical. The settings on record: substrate N-succinylAla-Ala-Pro-Phe-p-nitroanilide, chymotrypsin-coupled. In short, it runs like this: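 Cis-trans isomerization of N-succinyl-Ala-Ala-Pro-Phe-p-nitroanilide was followed spectrophotometrically in a chymotrypsin-coupled assay releasing 4-nitroanilide from the trans substrate. Apparent Ki came from the change in first-order rate constant across inhibitor concentrations.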

Data set [4] has as its system PBLs stimulated with LB human viral transformed B lymphoblastoid cells. The experiment in a line: MLR bioassay LB: inhibition of proliferation in mixed lymphocyte reaction. Type of data set: cell-based. The settings on record: Lymphoblastoid cell, pulsed on day 6, harvested 24 h later. In short, it runs like this:
(§1)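 Fresh human PBLs (5×10^4) stimulated with 5×10^3 Mitomycin C-treated allogeneic EBV-transformed B lymphoblastoid cells in RPMI 1640 with 10% FCS, with or without compound (DMSO stocks). Pulsed on day 6, harvested 24 h later and counted.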

Data set [5] relates to PBLs stimulated with JVM human viral transformed B lymphoblastoid cells. The experiment in a line: MLR bioassay JVM: inhibition of proliferation in mixed lymphocyte reaction. Type of data set: cell-based. The settings on record: Lymphoblastoid cell, pulsed on day 6, harvested 24 h later. In short, it runs like this: as §1
In data set [6] the test system is human peripheral blood lymphocytes. The experiment in a line: Mitogenesis assay PMA: inhibition of proliferation of human PBLs. The class given is cell-based. The conditions noted are these: Lymphocyte, PMA (10 ng/ml) plus ionomycin (250 ng/ml), 48 h incubation. In short, it runs like this:
(§2)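 Human PBLs from normal donors, isolated over Histopaque 1077 and cultured in RPMI 1640 with 10% heat-inactivated FCS, were stimulated with PMA or OKT3 mitogen in the presence of compound (DMSO stocks). After 48 h at 37 °C and 5% CO2, cells were pulsed with 1 μCi ³H-thymidine and harvested 24 h later for scintillation counting.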

Data set [7] deals with T1, FK-506 binding protein (FKBP). Nature of the data set: Competitive binding to FKBP against [3H]dihydro-FK-506 (apparent Kd). The settings on record: competition with [3H]dihydro-FK-506.
Data set [8] deals with human peripheral blood lymphocytes. The experiment in a line: Mitogenesis assay OKT3: inhibition of proliferation of human PBLs. The class given is cell-based. The settings on record: Lymphocyte, OKT3 (10^-4 dilution final), 48 h incubation. In short, it runs like this: as §2

A value given as a limit tells only on which side of the number the result lay.

Here are results for nine molecules from patent US5516797A, “Immunosuppressive compounds” (Vertex Pharmaceuticals, Incorporated, priority 1994, dated 1996).

T1 sequence (P62942 whole entry): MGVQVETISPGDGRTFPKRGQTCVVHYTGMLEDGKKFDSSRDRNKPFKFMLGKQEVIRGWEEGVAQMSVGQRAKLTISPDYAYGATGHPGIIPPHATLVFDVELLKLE

As a reminder, the IC50 is the midpoint of a concentration-inhibition curve. Take `C=CC[C@@H]1/C=C(\C)C[C@H](C)C[C@H](OC)[C@H]2O[C@@](O)(C(=O)C(=O)N3CCCC[C@H]3C(=O)O[C@H](/C(C)=C/[C@@H]3CC[C@@H](O)[C@H](OC)C3)[C@H](C)[C@@H](O)CC1=O)[C@H](C)C[C@@H]2OC` [FK-506]: the 50% inhibitory concentration (IC50) in [1] is less than 1 µg/mL; in data set [2], less than 1 µg/mL; in the data set with CTLL cells, more than 1 µg/mL. In the data set on CTLLs, the “IL-2 dependent proliferation of the CTLLs” value is “do not”. In the data set on binding protein (FKBP), the “binding to FKBP” value is “binds to a binding protein (FKBP) distinct from cyclophilin”. In the data set with IL-2 production, the “inhibition of IL-2 production, concentration relative to cyclosporin A” value is recorded as 100 times lower concentration than cyclosporin A. Also, the “inhibition of PPIase activity” value with PPIase is “inhibits PPIase activity”. For the same molecule, the “inhibition of cytotoxic T-cell generation, concentration relative to cyclosporin A” value with cytotoxic T-cell is listed as 100 times lower concentration than cyclosporin A. The “inhibition of mixed lymphocyte culture response, concentration relative to cyclosporin A” value in the data set on mixed lymphocyte culture is 100 times lower concentration than cyclosporin A. The “activity in activation-induced cell death assay (in words)” value in the data set on T-cell hybridoma is recorded as “inhibit this cell death”. Besides, the “Apoptosis (activation-induced cell death)” value in the data set with T-cell hybridoma is recorded as “Blocks”.
For `C=CCOC(=O)Nc1ccc(CCCOC(=O)[C@@H]2CCCCN2C(=O)C(=O)c2cc(OC)c(OC)c(OC)c2)cc1` [Compound 88], the Ki in data set [3] came to 11 nM. The IC50 is 2500 nM in [4], 4500 nM in data set [5], 2200 nM in data set [6] and 2200 nM in [8]. The Kd in data set [7] came to 70 nM.
Turning to `O=C(C(=O)N1CCCC[C@H]1C(=O)OCCCCc1ccccc1)c1cccc(-c2ccccc2)c1` [Compound 96], in data set [3], the Ki turned out to be 40 nM. Moreover, the concentration for half-maximal inhibition (IC50) in data set [4], in data set [5], in data set [6] and in [8] was more than 10000 nM in each case. Further, the Kd in data set [7] was found to be 33 nM.
With `O=C(C(=O)N1CCCC[C@H]1C(=O)OCc1ccccc1)c1cccs1` [Compound 22], the Ki in data set [3] turned out to be 800 nM. Further, the IC50 in data set [4], in data set [5], in data set [6] and in data set [8] was more than 10000 nM each time. The Kd in data set [7] came out at 4000 nM.
In the case of `O=C(C(=O)N1CCCC[C@H]1C(=O)OCCCCc1ccccc1)c1ccc(I)cc1` [Compound 81], the Ki in data set [3] is 800 nM. The IC50 in data set [4] was more than 10000 nM; in [5], more than 10000 nM; in data set [6] it was 7000 nM; in data set [8], more than 10000 nM. Further, the Kd in data set [7] is 250 nM.
As to `O=C(OCc1ccccc1)[C@@H]1CCCCN1C(=O)C(=O)C1(O)CCCCC1` [Compound 46], in [3], the Ki is 1000 nM. In addition, the IC50 in data set [4], in data set [5], in [6] and in [8] was more than 10000 nM in each case. Moreover, the Kd in data set [7] was 2000 nM.
As for `CO[C@H]1C[C@@H]2CC[C@@H](C)[C@@](O)(O2)C(=O)C(=O)N2CCCC[C@H]2C(=O)O[C@H]([C@H](C)C[C@@H]2CC[C@@H](O)[C@H](OC)C2)CC(=O)[C@H](C)/C=C(\C)[C@@H](O)[C@@H](OC)C(=O)[C@H](C)C[C@H](C)/C=C/C=C/C=C/1C` [Rapamycin], in [1], the IC50 is less than 1 µg/mL. For the same molecule, in the data set with CTLLs, the “IL-2 dependent proliferation of the CTLLs” value is on record as “inhibits IL-2 dependent proliferation of the CTLLs”. Moreover, in [2], the IC50 is less than 1 µg/mL. For the same molecule, in the data set on CTLL cells, the “activity in CTLL / IL-2 assay (in words)” value was “active” and the half-inhibitory concentration (IC50) is approximately 0.01 µg/mL. For the same molecule, in the data set on T-cell hybridoma, the “activity in activation-induced cell death assay (in words)” value was “inactive” and the “Apoptosis (activation-induced cell death)” value is on record as “Inactive”.
For `COc1cc(C(=O)C(=O)N2CCCC[C@H]2C(=O)OCc2ccccc2)cc(OC)c1OC` [Compound 13], in data set [3], the Ki amounted to 100 nM. The IC50 is more than 10000 nM in [4], more than 10000 nM in data set [5], more than 10000 nM in [6] and 5900 nM in data set [8]. The Kd in [7] was determined as 2000 nM.
With `O=C(C(=O)N1CCCC[C@H]1C(=O)OCCCCc1ccccc1)c1cccc(I)c1` [Compound 82], the Ki in data set [3] stood at 130 nM. Moreover, the IC50 is more than 10000 nM in data set [4], more than 10000 nM in data set [5], 10000 nM in data set [6] and more than 10000 nM in data set [8]. Further, the Kd in data set [7] amounted to 200 nM.
